Patent US7897741B2, “Cell cycle phase markers” (GE Healthcare UK Limited, priority 2004, dated 2011)

What was measured:
Type in all cases: cell-based, human
[1] = test system: U2OS stable cells expressing the pCORON1002-EGFP-C1-PSLD construct; experiment: Chemical cell cycle block studies on EGFP-PSLD stable cell line (IN Cell Analyzer imaging); details: for % G1: % of cells per field of view in G1-phase; for % G2: % of cells per field of view in G2-phase; for % S: % of cells per field of view in S-phase; for Total cells: total number of cells per field of view
Protocol: Stable cells expressing the pCORON1002-EGFP-C1-PSLD construct, were seeded at 0.3×10^5/ml in 96-well Greiner plates using antibiotic-free medium (100 μl/well) and incubate for 16 hours.
For chemical block studies (Table 1), stable cells were exposed to olomoucine, roscovitine, nocodazole, mimosine, colcemid or colchicine (Sigma). Cells were fixed in 2% formalin and nuclei stained with hoechst (2 μM).
After high throughput imaging and analysis on the IN Cell Analyzer system (GEHC), data for average nuclear intensity and N:C ratio (EGFP signal), nuclear size (hoescht signal) and, where appropriate, nuclear signal intensity (BrdU) were obtained for the total number of individual cells in a field of view using hoescht as a nuclear mask and the IN Cell Analyzer 3000 cell cycle phase marker algorithm (GEHC). For each well, the total number of cells per field of view were catagorised into G1-phase (predominantly nuclear EGFP distribution; high EGFP-PSLD nuclear intensity and N:C ratio), S-phase (nuclear BrdU signal >3SDs above background; EGFP-PSLD N:C ratio around 1) and G2-phase (large nuclear size; low EGFP-PSLD N:C ratio).

[2] = test system: CRM1-mediated nuclear export; experiment: Block of nuclear protein export: localization of GFP-HDHB and FLAG-HDHB in U2OS cells with LMB; details: in the presence of LMB (10 ng/ml, 3 h, with 10 μM cycloheximide); asynchronous, G1 and S phase U2OS cells
Protocol: Cell cycle synchronization was verified by flow cytometry as described previously (Taneja et al., J. Biol. Chem., (2002) 277, 40853-40861). In experiments to block nuclear protein export, cells were cultured for 3 h in DMEM containing 10 ng/ml of leptomycin B (LMB) and 10 μM cycloheximide (Calbiochem, San Diego, Calif.) to prevent new protein synthesis. Cells plated on glass coverslips were microinjected as described (Herbig et al., 1999) except that plasmid DNA rather than protein was injected.
For indirect immunofluorescence staining, cells were washed three times with phosphate buffered saline (PBS), fixed with 3.7% formaldehyde in PBS for 20 min, permeabilized for 5 min in 0.2% Triton X-100, and incubated with 10% FBS in PBS for 45 min. FLAG-HDHB was detected with mouse monoclonal anti-FLAG antibody (Sigma-Aldrich), 1:100 in PBS plus 10% FBS for 2 h at room temperature. After washing, cells were incubated with Texas Red-conjugated goat anti-mouse secondary antibody (Jackson ImmunoResearch Laboratories, West Grove, Pa.) at 1:100 in PBS plus 10% FBS for 1 h at room temperature. […] The subcellular distribution of each protein was quantitatively evaluated in at least two independent experiments.
For GFP fluorescence, cells were washed three times with phosphate-buffered saline (PBS), fixed with 3.7% formaldehyde containing 2 μM Hoechst 33258 for 20 min and imaged and evaluated as above.

[3] = test system: EGFP-PSLD stable cell lines (U2OS); experiment: Kinetic imaging (24 hours) of EGFP-PSLD stable cell lines treated with olomoucine; details: cells arrested in G2, without passing through mitosis; kinetic imaging over 24 hours
Protocol: Where appropriate, for high throughput imaging, kinetic imaging (24 hr) and analysis in multiwell plate format of stable cell lines flourescence microscopy was conducted using a high throughput confocal imaging system (IN Cell Analyzer 1000 or IN Cell Analyzer 3000, GE Healthcare, Amersham, UK) on cells transfected with pCORON1002-EGFP-C1-PSLD, pCORON1002-EGFP-C1-βGal-PSLD or redFP derivatives of these vectors. Images were analysed using the cell cycle phase marker algorithm (GE Health Care).

SMILES: CN[C@H]1CCc2cc(OC)c(OC)c(OC)c2-c2ccc(OC)c(=O)cc21 [Colcemid]
- % G1 ([1]; 0.3 μM): 16%
- % G2 ([1]; 0.3 μM): 43%
- % S ([1]; 0.3 μM): 41%
- Total cells ([1]; 0.3 μM): 490
- % G1 ([1]; 1.2 μM): 8%
- % G2 ([1]; 1.2 μM): 59%
- % S ([1]; 1.2 μM): 32%
- Total cells ([1]; 1.2 μM): 450

SMILES: COc1cc2c(c(OC)c1OC)-c1ccc(OC)c(=O)cc1[C@@H](NC(C)=O)CC2 [Colchicine]
- % G1 ([1]; 4 μM): 9%
- % G2 ([1]; 4 μM): 55%
- % S ([1]; 4 μM): 36%
- Total cells ([1]; 4 μM): 467
- % G1 ([1]; 100 μM): 12%
- % G2 ([1]; 100 μM): 57%
- % S ([1]; 100 μM): 32%
- Total cells ([1]; 100 μM): 439

SMILES: N[C@@H](Cn1ccc(=O)c(O)c1)C(=O)O [L-mimosine]
- % G1 ([1]; 2 mM): 6%
- % G2 ([1]; 2 mM): 26%
- % S ([1]; 2 mM): 68%
- Total cells ([1]; 2 mM): 1710

SMILES: CCC(=C/[C@H](C)C/C=C/C(C)=C/[C@@H](C)C(=O)[C@@H](C)[C@H](O)[C@@H](C)C/C(C)=C/C(=O)O)/C=C/[C@@H]1OC(=O)C=C[C@@H]1C [LMB, Leptomycin B]
- Localization of GFP-HDHB and FLAG-HDHB fusion proteins [2]: accumulated in the nucleus independently of the cell cycle

SMILES: COC(=O)Nc1nc2ccc(C(=O)c3cccs3)cc2[nH]1 [Nocodazole]
- % G1 ([1]; 3 μM): 6%
- % G2 ([1]; 3 μM): 61%
- % S ([1]; 3 μM): 33%
- Total cells ([1]; 3 μM): 606

SMILES: Cn1cnc2c(NCc3ccccc3)nc(NCCO)nc21 [Olomoucine]
- % G1 ([1]; 500 μM): 63%
- % G2 ([1]; 500 μM): 4%
- % S ([1]; 500 μM): 33%
- Total cells ([1]; 500 μM): 600
- Time for EGFP-PSLD signal to redistribute from the cytoplasm to the nucleus [3]: 4 to 8 h

SMILES: CC[C@H](CO)Nc1nc(NCc2ccccc2)c2ncn(C(C)C)c2n1 [Roscovitin]
- % G1 ([1]; 100 μM): 52%
- % G2 ([1]; 100 μM): 13%
- % S ([1]; 100 μM): 36%
- Total cells ([1]; 100 μM): 693
- EGFP-PSLD distribution and cell cycle arrest ([1]; EGFP-PSLD stable cell lines, refers to Table 1): predominantly nuclear distribution of EGFP-PSLD and arrest in G1
